US12351830B2, “Method for maintaining and amplifying colon cancer stem cells and method for inducing colon cancer organoid” (NATIONAL UNIVERSITY CORPORATION KOBE UNIVERSITY, priority 2017, dated 2025)

Experiments:
Assay type in all cases: cell-based, human
2nd V50-OKS-SW480 cells = assay: 5-FU-chemoresistance analysis; details: 1 and 50 μg/ml 5-FU, 72 hr, relative to cells without 5-FU, n=3
Experimental: A total of 6×10^4 cells were seeded in 12-well plates with DMEM containing 0, 1, 50 μg/ml of 5-fluorouracil (5-FU, Kyowa Kirin) respectively. After incubation for 72 hr, the cell viability after 5-FU exposure was measured by the Countess (Invitrogen) system.

2nd V50-OKS cells [1] = assay: flat plane adhesion culture of induced colon cancer stem cells, cell count and morphology; details: for effect in flat plane adhesion culture (morphology, number of cells): VPA 1 mM, CHIR99021 3 μM, 5 days
Experimental: A human colon cancer cell line (SW480) and Plat-A amphotropic retrovirus packaging cells were obtained from the ATCC collection and Cell Biolabs (San Diego, CA, USA), respectively. Both cells were maintained in Dulbecco's modified Eagle's medium (DMEM) (Nacalai Tesque, Kyoto, Japan) supplemented with 10% fetal bovine serum (FBS) (Life Technologies) and penicillin (100 Units/ml) and streptomycin (100 μg/ml) (Life Technologies) at 37° C. in a humidified 5% […] incubator. In Plat-A culture, 1 μg/ml of puromycin (Nacalai Tesque) and 10 μg/ml of blasticidin (Funakoshi) were added. HUVECs (Lonza) and human MSCs (Lonza) were maintained in endothelial growth medium (Lonza) at 37° C. in a humidified 5% CO2 incubator. The cells were treated with FK506 (Sigma, 25 μM), VPA (WAKO, 1 mM) or CHIR99021 (Funakoshi, 3 μM) for 5 days. Thereafter, the cells were detached from the culture dish by an enzyme treatment, dispersed and the number of the cells was counted with Countess system (Invitrogen). The human induced pluripotent stem (hiPS) cells used as a control were generated from human peripheral blood mononuclear cells in the laboratory.
Culture of SW480 cells after introduction of reprogramming factor, isolation of induced colon cancer stem cell (hereinafter to be also referred to as “colon iCSC”)-enriched cell population and induction of colon cancer organoid were performed according to the schedule described in FIG. 6. Establishing culture of colon iCSC and sorting of colon iCSC-enriched cell population were performed according to the method described in the above-mentioned non-patent document 3 (flow cytometry utilizing Hoechst33342 eliminating ability in the presence of 50 μM verapamil). Hereinafter colon iCSC-enriched cell population (cell population not labeled with Hoechst33342 in the presence of 50 μM verapamil; V50 cell) obtained by the first sorting is sometimes to be abbreviated as 1st V50 cell (or 1st V50-OKS cell), and the V50 cell obtained by the second sorting is sometimes to be abbreviated as 2nd V50 cell (or 2nd V50-OKS cell). On the other hand, the cell population labeled with Hoechst33342 in the presence of 50 μM verapamil is sometimes to be abbreviated as non V50cell or non V50-OKS cell. Colon cancer organoid was induced by the method described in the below-mentioned sphere formation assay.
SW480 cells or 2nd V50 cells were subjected to flat plane adhesion culture in the presence of FK506 (Sigma) for 5-15 days, and the cell number was counted with Countess (Invitrogen) system. Alternatively, the cells were subjected to flat plane adhesion culture in the presence of FK506, and then suspension culture in the presence or absence of FK506 to form spheres. The sphere number was counted with Countess (Invitrogen) system. Unless otherwise specified, FK506 was used at a concentration of 25 μM in this Example.
Duplexed Stealth siRNA (Invitrogen) were used for reference examples and were transduced to the cells according to the manufacturer's protocol.

2nd V50-OKS cells [2] = assay: sphere formation assay, induced colon cancer stem cells; details: VPA 1 mM, CHIR99021 3 μM, 10 days
Experimental: The cells were transferred to Ultra Low Attachment plates (Corning) in serum-free DMEM containing 10 ng/ml bFGF (WAKO), 10 μg/ml human insulin (CST), 100 μg/ml human transferrin (Roche) and 100 μg/ml BSA (Nacalai Tesque), and incubated at 37° C. in a 5% CO2 incubator for 10 days. The sphere count was calculated based on the sphere size which was larger than 100 μm. FK506 (25 μM), VPA (1 mM) or CHIR99021 (3 μM) were added to the medium and the spheres were then treated for 10 days. SW480 cells or 2nd V50 cells were subjected to flat plane adhesion culture in the presence of FK506 (Sigma) for 5-15 days, and the cell number was counted with Countess (Invitrogen) system. Alternatively, the cells were subjected to flat plane adhesion culture in the presence of FK506, and then suspension culture in the presence or absence of FK506 to form spheres. The sphere number was counted with Countess (Invitrogen) system. Unless otherwise specified, FK506 was used at a concentration of 25 μM in this Example.

2nd V50 cells = assay: colony formation assay; details: 1 mM VPA, 3 μM CHIR or 25 μM FK506, day 12
Experimental: 2nd VP50 cells produced by 3 independent experiments were seeded in a 6 well plate at a density of 2×10^3 cells/well. The next day, the medium was changed to a medium not added with the compound, or a medium added with 1 mM VPA, 3 μM CHIR or 25 μM FK506. Thereafter, the medium was changed every 2 days or 3 days. On day 12, the cells were fixed with methanol, stained with crystal violet and the colonies were counted using a stereoscopic microscope.

NFATc3-GFP = assay: localization of NFATc3-GFP in 2nd V50-OKS cells; details: 2nd V50-OKS cells treated with compound
From the text: Retroviral vectors separately encoding OCT3/4, SOX2 or KLF4 in pMXs based vectors (pMXs-OCT3/4, pMXs-SOX2, pMXs-KLF4) were obtained from Addgene. Therefore, using these vectors, the polycistronic retroviral vector encoding OCT3/4, KLF4 and SOX2 (pMXs-OKS) was designed. That is, human OCT3/4, KLF4 and SOX2 were amplified by polymerase chain reaction (PCR) with primers containing the 2A sequences of Thosea asigna virus (T2A) and cloned into EcoRI site of pMXs vector using the In-fusion HD cloning system (Clontech). To generate pMXs-NFATc3-GFP construct, NFATc3-GFP cDNA were PCR amplified using HA-NFAT4 (3-407)-GFP (purchased from Addgene #21664) as a template and cloned into EcoRI-Notl site of pMXs-vector).
Finally, the cellular localization of NFAT after the treatment of FK506, VPA and CHIR in the iCSCs was examined. NFATc3 fused to green fluorescent protein (NFATc3-GFP; Aramburu J, et al., Science, 1999; 285:2129-33, Peuker K, et al., Nat Med, 2016, 22:506-15) was retrovirally introduced into 2nd V50-OKS cells. In the 2nd V50-OKS cells without any compounds and those with FK506, it was observed that NFATc3-GFP localized in the cytoplasm. In contrast, localization of NFATc3-GFP was found in the nuclei of the 2nd V50-OKS cells treated with VPA and CHIR (FIG. 16). […] This is opposite to inhibition of calcineurin via cytoplasm-nuclear translocation of NFAT.

Compound	viability of 2nd V50-OKS-SW480 cells in the presence of 5-FU compared with parental SW480 cells (2nd V50-OKS-SW480 cells)	effect on the cell number (2nd V50-OKS cells [1]; 2nd V50-OKS cultures, FK506 25 μM, 5 days after passage)	total cell number amplification (2nd V50-OKS cells [1]; 2nd V50 cells adhesion cultured with FK506, 10 days)	total cell number amplification (2nd V50-OKS cells [1]; 2nd V50 cells adhesion cultured with FK506, 15 days)	effect in flat plane adhesion culture (morphology, number of cells) (2nd V50-OKS cells [1])	sphere forming ability (2nd V50-OKS cells [2])	number of secondary dome-shaped colonies (2nd V50 cells)	cellular localization of NFATc3-GFP (NFATc3-GFP)
O=c1[nH]cc(F)c(=O)[nH]1 [5-FU, 5-fluorouracil]	significantly higher	–	–	–	–	–	–	–
C=CC[C@@H]1/C=C(\C)C[C@H](C)C[C@H](OC)[C@H]2O[C@@](O)(C(=O)C(=O)N3CCCC[C@H]3C(=O)O[C@H](/C(C)=C/[C@@H]3CC[C@@H](O)[C@H](OC)C3)[C@H](C)[C@@H](O)CC1=O)[C@H](C)C[C@@H]2OC [FK506, FK506 (tacrolimus)]	–	no significant effect	about 100 times	about 1000 times	–	–	–	–
Cc1c[nH]c(-c2cnc(NCCNc3ccc(C#N)cn3)nc2-c2ccc(Cl)cc2Cl)n1 [CHIR99021]	–	–	–	–	the same effect as siRNA	significantly suppressed	decreased	nuclei
CCCC(CCC)C(=O)O [VPA, valproic acid]	–	–	–	–	the same effect as siRNA	significantly suppressed	decreased	nuclei
